From PubChem BioAssay (NCI)
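Five concentrations, 48 hours, 96-well plates. TGI denotes the concentration required for complete inhibition of growth.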

Legend:
Assay in all cases: NCI-60 cell line screen, 48 h
DU-145 prostate = tested on: DU-145 prostate
HCT-15 colon = tested on: HCT-15 colon
NCI-H460 lung = tested on: NCI-H460 lung
RXF 393 renal = tested on: RXF 393 renal
OVCAR-8 ovarian = tested on: OVCAR-8 ovarian
NCI-H226 lung = tested on: NCI-H226 lung
HCT-116 colon = tested on: HCT-116 colon
SF-295 CNS = tested on: SF-295 CNS
UO-31 renal = tested on: UO-31 renal
KM12 colon = tested on: KM12 colon
XF 498 CNS = tested on: XF 498 CNS
A498 renal = tested on: A498 renal
SW-620 colon = tested on: SW-620 colon
SK-OV-3 ovarian = tested on: SK-OV-3 ovarian
IGROV1 ovarian = tested on: IGROV1 ovarian
HCC-2998 colon = tested on: HCC-2998 colon
K-562 leukemia = tested on: K-562 leukemia
786-0 renal = tested on: 786-0 renal

Compound `CCOC(=O)/C(=C\c1ccc(O)c(OC)c1)C(=O)c1ccccc1` has a TGI (DU-145 prostate) of 61.4 µM, a TGI (HCT-15 colon) of 24.8 µM and a TGI (NCI-H460 lung) of over 60.2 µM. It also gave a TGI (RXF 393 renal) of 57.8 µM, a TGI (OVCAR-8 ovarian) of 18.3 µM and a TGI (NCI-H226 lung) of over 53 µM. For the same compound, the TGI (HCT-116 colon) was 28.7 µM, the TGI (SF-295 CNS) was over 52.6 µM and the TGI (UO-31 renal) was over 51 µM. For the same compound, the TGI (KM12 colon) was 34.3 µM, the TGI (XF 498 CNS) was over 52 µM and the TGI (A498 renal) was 39 µM. For the same compound, the TGI (SW-620 colon) was 32.4 µM, the TGI (SK-OV-3 ovarian) was over 61.4 µM and the TGI (IGROV1 ovarian) was 39 µM. It also gave a TGI (HCC-2998 colon) of 38.1 µM, a TGI (K-562 leukemia) of over 31.8 µM and a TGI (786-0 renal) of 37.6 µM.
